US4933368A, “N-phenylbenzamide derivatives” (Godecke Aktiengesellschaft, priority 1983, dated 1990)
Read-outs that look alike come from different tables or passages of the source.

How the values were obtained:
[1] = test system: allogeneic skin grafts; experiment: Trial II, skin graft survival test in rats (recipient Osborne Mendel, donor Lewis), vs azathioprine; type: in vivo; conditions: far smaller quantities of Substance A
Protocol: Route of Intragastric via stomach tube,
suspended in 0.8% Methocel
Volume: 0.01 ml per gram body weight and dose
Trial II/from Day -2 before grafting to Day +9
Trial II/4-8 mg/kg daily increasing over 12 days
Two allogeneic skin grafts from a donor rat are transferred to a receiving rat from an unrelated inbred strain. The panniculus carnosus attached to the graft may either be removed by dissection (suprapannicular graft) or be left on the graft (subpannicular graft). Grafting is conducted on Day 0 under light ether narcosis subsequent to shaving and cleanup of the grafting sites. The grafts are fixed on the graft receptor sites by dressing with a suitable bandage. From Day +9 a protective colar is placed on the animals, the bandage removed, and the status of the grafts daily controlled. The assessment of the graft function is conducted by means of a graduation scale, which allows for differentiation of rejection corresponding to a three-degree of severity score. The trial ends on the day when 50% of the animals of one group have rejected both grafts. The lengthening of the graft survival time in comparison to the controls is determined in days.
Recipient: Osborne Mendel .male., Donor: Lewis .male.. Two suprapannicular grafts were transferred from a donor to a recipient.

[2] = test system: L1210 leukemia; type: in vivo, CD2 mice; conditions: for Mean Survival Time: controls 8; for % Increase in Mean Survival Time (toxic death): mouse, in vivo, po
Description: (§1) Preparation: As suspension freshly prepared
(§2) before each administration
(§3) Route of Oral, suspended in 0.8%
(§4) administration: Methocel
(§5) Volume: 0.01 per gram body weight
(§6) daily for 9 days, if not
L 1210/Rij adaptation of L1210 leukemia in CD2 mice (C57B1×DBA2,Fl hybrid). On the day before administration of the substance 10^5 leukemic cells are inoculated intraperitoneally. The cages are controlled 2×X daily for dead animals. The terminal point is the mean survival of five mice/dosage compared with ten untreated controls.

[3] = test system: Osteosarcoma C22LR; experiment: Osteosarcoma C22LR, growth retardation in mice; type: in vivo, BCBA mice; conditions: for Surviving Animals: n = 5
Protocol: as §1, §2, §3, §4, §5, §6
Osteosarcoma. C22LR in BCBA mice (C57B1×CBA/Rij, Fl hybrid). The tumor is subcutaneously inoculated bilaterally into the sides. It is measured at least 2×weekly in three dimensions. The terminal point is the retardation of growth. It is defined as the difference of the average time in which the volume of five to ten tumors in five treated animals reaches a given value in comparison with that of five to ten tumors in the control animals. This value was determined as four times that of the average volume at commencement of treatment.

[4] = test system: Electro-convulsion; experiment: Maximal electroconvulsion test; type: in vivo; conditions: Mus musculus, po; i.g., mice
[5] = test system: Pentetrazole-convulsion; experiment: Pentetrazole-convulsion model; type: in vivo; conditions: Mus musculus, po; i.g., mice
[6] = test system: L5222 leukemia; experiment: L5222 leukemia (CCLS test); type: in vivo, mice; conditions: IP PO
Description: The two types of assays used were the standard CCTM test for solid tumors and the CCLS test for leukemia.
The CCLS assay assesses the antitumor activity of a test agent by measurement of the treatment-induced increase in host lifespan. Only rapidly growing tumors that kill their respective hosts in less than 30 days are appropriate for life span assays.
Test animals are appropriate Fl hybrid mice derived for the inbred strain of tumor origin. After the required mice are randomized, they receive implants (IP, IV, IC, IM, or SC) of appropriately diluted ascites fluid or dilutions of tumor brei on Day 0. […]
Test agents are dissolved or suspended in any of several vehicles and are administered by the routes and treatment schedules specified on the test protocol. All animals are monitored for signs of acute toxicity and side effects.
Survival is checked daily for each test group. Both the number dead and the number living are counted and recorded. […] Clinical signs are observed and recorded for all test groups. Group body weights are recorded at least weekly as directed in the specific test protocol. […]
Td=tumor volume doubling time (days), calculated from the slope of a log-linear least square fit of the survival time vs inoculum curve for titrated inocula of tumor cells in untreated mice.
MLS=median life span, calculated by a method appropriate for grouped observations. […]

[7] = test system: MNU-induced rat mammary tumor; experiment: MNU-induced mammary tumor (CCTR); type: in vivo; conditions: for % T/C / Rating: PO, 4 times daily, Days 1-5 for 5 weeks
Description: Doses just under the acutely lethal dose can be given indefinitely (for more than 30 days), during which the treated animals regain their initial weight loss.

[8] = Distribution coefficient; type: physicochemical; conditions: n-octanol/water pH 7.4/20° C.; read-out: log VK (distribution coefficient)
Description: This is also the case with intragastric application, as shown by certain pharmacological effects.

[9] = test system: peripheral leukocytes and lymphocytes; experiment: Influence on peripheral leukocytes and lymphocytes in rhesus monkeys; type: in vivo; conditions: 1× daily 10 mg/kg i.g.
Protocol: Dosage: 1×daily 10 mg/kg i.g.
FIG. 1: Rhesus monkey ZE, .female.
FIG. 2: Rhesus monkey YL, .female.

[10] = test system: humoral immunoresistance; experiment: Susceptibility to bacterial infections in treated rats; type: in vivo; conditions: sustained period, high doses
Description: An inhibition of the humoral immune system (antibody-producing B-lymphocytes) by the substances of the invention and a possibility of therapy resulting from this, e.g., for autoaggression diseases, which are characterized by an increase in antibody production against the body's own tissues, can currently only be concluded indirectly.

[11] = in vivo; conditions: mouse, po

SMILES: Nc1ccc(C(=O)Nc2ccccc2N)cc1 [Substance A, 4-Amino-N-(2'-aminophenyl)-benzamide]
- effect compared with standard azathioprine [1]: equally effective as the immunosuppressive standard azathioprine
- Mean Survival Time ([2]; 4 × 180 mg/kg PO, n = 5): 5 days
- Mean Survival Time ([2]; 4 × 240 mg/kg PO, n = 5): 5 days
- Mean Survival Time ([2]; 7 × 120 mg/kg PO, n = 5): 6 days
- % Increase in Mean Survival Time ([2]; 9 × 60 mg/kg PO, n = 5): 38%
- Mean Survival Time ([2]; 9 × 60 mg/kg PO, n = 5): 11 days
- assessment of activity ([2]; moderate dosage): significant activity
- % Increase in Mean Survival Time (toxic death) ([2]; 120 mg/kg): toxic death
- % Increase in Mean Survival Time (toxic death) ([2]; 180 mg/kg): toxic death
- % Increase in Mean Survival Time (toxic death) ([2]; 240 mg/kg): toxic death
- Surviving Animals ([3]; 1 × 240 mg/kg PO): 5/5
- Retardation in Growth of Tumor (Days) ([3]; 1 × 240 mg/kg PO, p = 0,001): 3,1 Days
- Retardation in Growth of Tumor (Days) ([3]; 2 × 180 mg/kg PO): 9,6 Days
- Surviving Animals ([3]; 2 × 180 mg/kg PO): 1/5
- Retardation in Growth of Tumor (toxic death) ([3]; 4 × 120 mg/kg PO): toxic death
- Surviving Animals ([3]; 9 × 60 mg/kg IP, controls 5/5): 5/5
- Retardation in Growth of Tumor (Days) ([3]; 9 × 60 mg/kg IP, p = 0,0001): 7,8 Days
- assessment of activity ([3]; mouse, in vivo): good activity
- ED50 [4]: 30 mg/kg
- ED50 [5]: 44 mg/kg
- % T/C ([6]; Days 1, 4, 7, 48 mg/kg): 150%
- % T/C ([6]; Days 1-9, 15 mg/kg): 169%
- anticancer activity ([7]; MNU-induced rat mammary tumor): significant anticancer activity has been demonstrated and confirmed
- % T/C ([7]; 7.5 mg/kg): 3.5%
- Rating ([7]; 7.5 mg/kg): AA (≤10% T/C High Activity)
- % T/C ([7]; 10 mg/kg): 7.8%
- Rating ([7]; 10 mg/kg): AA (≤10% T/C High Activity)
- logD [8]: 2.2
- reduction of the peripheral lymphocytes [9]: simultaneous distinct reduction of the peripheral lymphocytes
- susceptibility to bacterial infections [10]: increased susceptibility to bacterial infections
- LD50 at 168 h [11]: 625 mg/kg
